In data set [1] the test system is human volunteers exposed to direct sunlight. The data set is described as follows: Oral self-administration of B vitamins by human subjects, sunburning on continuous exposure to sunlight. Conditions: for expected sunburning effects of continuous sun exposure: one patient, a year and a half, oral, B12 300–500 mcg/day, folic acid 2–5 mg/day, or both with niacinamide 200–500 mg/day. Format: in vivo. As for the experimental part:
1. Over the period of four weeks a white middle aged couple in their forties on holiday in Mexico self administered 400–600 mcg vitamin B12/day in the form of 100 mcg tablets.
2. Over the period of a year and a half a […] self-administered vitamin B12 alone at 300 mcg to 500 mcg/day in the form of 100 mcg tablets, folic acid alone in the form of folic acid alone at 2 mg–5 mg/day in the form of 1 mg tablets or a combination of both vitamins in the same dose range taken with niacinamide 200 mg–500 mg/day in the form of 100 mg tablets. […] Normal burning rates returned within 24 hrs of the cessation of oral administration of the various formulations.
3. […] The published UVB index gave an expected time of continuous exposure to sunlight in the Edmonton AB area of 45 minutes. The maximum SPF (skin protection factor) was computed to be approximately 330/45=7.3.
5. These experiments have been repeated with approximately twenty human volunteers of various skin types ranging in age from 25 to 35 years. Most were female, one was a qualified physician, and many were qualified nurses or other healthcare professionals trained in observing symptoms of skin burning. Over the past year, a variety of different combinations of the three B complex vitamins were tested by exposure of these individuals to direct sunlight in locales such as Alberta Canada, Kelowna Canada, Mexico, Montego Bay Jamaica, San Diego Calif., Phoenix Ariz., Los Angeles Calif., and Honolulu, Hi. either in the course of their work or on vacation. The subjects had various skin types and were of many different nationalities.

For data set [2] the following is noted: human, topical application; cited from earlier work.

On to `Nc1nc2ncc(CNc3ccc(C(=O)N[C@@H](CCC(=O)O)C(=O)O)cc3)nc2c(=O)[nH]1` [folic acid], for which the “expected sunburning effects of continuous sun exposure” value in data set [1] was “some amelioration of the expected sunburning effects”. In the case of `COc1ccc(C(=O)c2ccccc2)c(O)c1` [oxybenzone], in data set [2], the “systemic absorption and urinary excretion after application to the skin” value is “absorbed systemically and excreted in human urine soon after application to the skin”. For vitamin B12, the “rate of sunburning when exposed continuously to sunlight” value in data set [1] (400–600 mcg/day oral, four weeks, couple in Mexico, versus past experience and versus not taking the supplement) is given as “significant reduction in the rate of sunburning”. Also, the “expected sunburning effects of continuous sun exposure” value in data set [1] is given as “some amelioration of the expected sunburning effects”.
